Assay results as given in PubChem BioAssay (NCI).
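How tested: cells in 96-well plates exposed to compound for 48 hours at five concentrations. Abbreviation: GI50, concentration required for 50% inhibition of growth. The concentration for full growth arrest is given as TGI.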

Experiments:
Test in all cases: NCI anticancer screen, dose series, 48 h
786-0 renal = system: 786-0 renal
A498 renal = system: A498 renal
A549 NSCLC = system: A549 NSCLC
ACHN renal = system: ACHN renal
CAKI-1 renal = system: CAKI-1 renal
COLO 205 colon = system: COLO 205 colon
DU-145 prostate = system: DU-145 prostate
EKVX NSCLC = system: EKVX NSCLC
HCC-2998 colon = system: HCC-2998 colon
HCT-116 colon = system: HCT-116 colon
HCT-15 colon = system: HCT-15 colon
HOP-62 NSCLC = system: HOP-62 NSCLC
HOP-92 NSCLC = system: HOP-92 NSCLC
HS 578T breast = system: HS 578T breast
HT29 colon = system: HT29 colon
IGROV1 ovarian = system: IGROV1 ovarian
KM12 colon = system: KM12 colon
LOX IMVI melanoma = system: LOX IMVI melanoma
M14 melanoma = system: M14 melanoma
MALME-3M melanoma = system: MALME-3M melanoma
MCF7 breast = system: MCF7 breast
MDA-MB-231 breast = system: MDA-MB-231 breast
MDA-MB-435 = system: MDA-MB-435
NCI-H226 lung = system: NCI-H226 lung
NCI-H23 lung = system: NCI-H23 lung
NCI-H460 lung = system: NCI-H460 lung
NCI-H522 lung = system: NCI-H522 lung
NCI/ADR-RES ovarian = system: NCI/ADR-RES ovarian
OVCAR-3 ovarian = system: OVCAR-3 ovarian
OVCAR-4 ovarian = system: OVCAR-4 ovarian
OVCAR-5 ovarian = system: OVCAR-5 ovarian
OVCAR-8 ovarian = system: OVCAR-8 ovarian
PC-3 prostate = system: PC-3 prostate
RPMI-8226 leukemia = system: RPMI-8226 leukemia
RXF 393 renal = system: RXF 393 renal
SF-268 CNS = system: SF-268 CNS
SF-295 CNS = system: SF-295 CNS
SF-539 CNS = system: SF-539 CNS
SK-MEL-2 melanoma = system: SK-MEL-2 melanoma
SK-MEL-28 melanoma = system: SK-MEL-28 melanoma
SK-MEL-5 melanoma = system: SK-MEL-5 melanoma
SK-OV-3 ovarian = system: SK-OV-3 ovarian
SN12C renal = system: SN12C renal
SNB-19 CNS = system: SNB-19 CNS
SNB-75 CNS = system: SNB-75 CNS
T-47D breast = system: T-47D breast
TK-10 renal = system: TK-10 renal
U251 CNS = system: U251 CNS
UACC-257 melanoma = system: UACC-257 melanoma
UACC-62 melanoma = system: UACC-62 melanoma
UO-31 renal = system: UO-31 renal

## COc1ccc2c(c1)CC[C@@H]1[C@@H]2CC[C@@]2(C)[C@H]1CC1(CCCCC1)[C@@H]2O
786-0 renal
  GI50: 3.81 µM
  TGI: 14.7 µM
A498 renal
  GI50: 16.7 µM
  TGI: 32 µM
A549 NSCLC
  GI50: 5.58 µM
  TGI: 26.8 µM
ACHN renal
  GI50: 14.7 µM
  TGI: 28.2 µM
CAKI-1 renal
  GI50: 18.2 µM
  TGI: 33.9 µM
COLO 205 colon
  GI50: 7.35 µM
  TGI: 26 µM
DU-145 prostate
  GI50: 15.2 µM
  TGI: 29.3 µM
EKVX NSCLC
  GI50: 18.3 µM
  TGI: 35.5 µM
HCC-2998 colon
  GI50: 14.1 µM
  TGI: 28.5 µM
HCT-116 colon
  GI50: 12.3 µM
  TGI: 26.4 µM
HCT-15 colon
  GI50: 2.59 µM
  TGI: 10.2 µM
HOP-62 NSCLC
  GI50: 18.3 µM
  TGI: 34.3 µM
HOP-92 NSCLC
  GI50: 16 µM
  TGI: 33 µM
HS 578T breast
  GI50: 3.59 µM
  TGI: 10.9 µM
HT29 colon
  GI50: 1.81 µM
  TGI: 4.39 µM
IGROV1 ovarian
  GI50: 30.9 µM
  TGI: 80.7 µM
KM12 colon
  GI50: 7.91 µM
  TGI: 27.3 µM
LOX IMVI melanoma
  GI50: 7.28 µM
  TGI: 20.9 µM
M14 melanoma
  GI50: 13.8 µM
  TGI: 31.4 µM
MALME-3M melanoma
  GI50: 18.8 µM
  TGI: 36.3 µM
MCF7 breast
  GI50: 18.4 µM
  TGI: 37.5 µM
MDA-MB-231 breast
  GI50: 12.9 µM
  TGI: 32.8 µM
MDA-MB-435
  GI50: 16.5 µM
  TGI: 33.8 µM
NCI-H226 lung
  GI50: 20.2 µM
  TGI: 44.9 µM
NCI-H23 lung
  GI50: 18.6 µM
  TGI: 35.9 µM
NCI-H460 lung
  GI50: 3.82 µM
  TGI: 15.4 µM
NCI-H522 lung
  GI50: 17.9 µM
  TGI: 36.6 µM
NCI/ADR-RES ovarian
  GI50: 14.8 µM
  TGI: 30.7 µM
OVCAR-3 ovarian
  GI50: 15.1 µM
  TGI: 31.1 µM
OVCAR-4 ovarian
  GI50: 13.9 µM
  TGI: 28.7 µM
OVCAR-5 ovarian
  GI50: 13.1 µM
  TGI: 28.3 µM
OVCAR-8 ovarian
  GI50: 19 µM
  TGI: 41.5 µM
PC-3 prostate
  GI50: 7.93 µM
  TGI: 21.7 µM
RPMI-8226 leukemia
  GI50: 2.81 µM
  TGI: 9.35 µM
RXF 393 renal
  GI50: 4.68 µM
  TGI: 29.2 µM
SF-268 CNS
  GI50: 12 µM
  TGI: 26.6 µM
SF-295 CNS
  GI50: 9.05 µM
  TGI: 23.1 µM
SF-539 CNS
  GI50: 4.22 µM
  TGI: 16.6 µM
SK-MEL-2 melanoma
  GI50: 20.4 µM
  TGI: 41.6 µM
SK-MEL-28 melanoma
  GI50: 14.9 µM
  TGI: 29.5 µM
SK-MEL-5 melanoma
  GI50: 8.06 µM
  TGI: 20.4 µM
SK-OV-3 ovarian
  GI50: 21.6 µM
  TGI: 41.3 µM
SN12C renal
  GI50: 20.4 µM
  TGI: 39 µM
SNB-19 CNS
  GI50: 18 µM
  TGI: 40.7 µM
SNB-75 CNS
  GI50: 16.4 µM
  TGI: 35.1 µM
T-47D breast
  GI50: 15.7 µM
  TGI: 39.7 µM
TK-10 renal
  GI50: 12.2 µM
  TGI: 31.8 µM
U251 CNS
  GI50: 10 µM
  TGI: 24.4 µM
UACC-257 melanoma
  GI50: 23.6 µM
  TGI: 47.2 µM
UACC-62 melanoma
  GI50: 16.4 µM
  TGI: 31.6 µM
UO-31 renal
  GI50: 16.8 µM
  TGI: 47.2 µM
